Data: patent US8466201B2, “Potassium ion channel modulators and uses thereof” (Ramot at Tel-Aviv University ltd., priority 2007, dated 2013)

Target: KCNQ2/KCNQ3 potassium channel current expressed in mammalian cells (Homo sapiens, UniProt O43525+O43526)
Test: KCNQ2/KCNQ3 current enhancement, automated parallel patch-clamp (PatchXpress 7000A)
Format: cell-based
Settings: mean±s.e.m
Description: The objective of this study was to examine the in vitro effects of the Example compounds on the KCNQ2/KCNQ3 potassium channel current expressed in mammalian cells using the PatchXpress 7000A (Molecular Devices), an automatic parallel patch-clamp system. The test compounds were evaluated at 30 or 10 μM (n≦2). The duration of exposure to the test compound was 5 minutes. […] The results for a positive control, flupirtine (Table 2) applied to naïve cells in the same study confirm the sensitivity of the test system to detect KCNQ2/KCNQ3 current enhancement.
All experiments were performed at ambient temperature. Each cell acted as its own control.
A 30 μM or 10 μM concentration of test compound was applied via disposable polyethylene micropipette tips to naïve cells. Each solution exchange, performed in quadruplicate, consisted of aspiration and replacement of 45 μL of the total 50 μL volume of the extracellular well of the Sea/chip16.
Vehicle was applied to naïve cells (n≦2), for a 5 minute exposure interval.
Each solution exchange, performed in quadruplicate, consisted of aspiration and replacement of 45 μL of the total 50 μL volume of the extracellular well of the Sea/chip16. After vehicle application, the positive control was applied in the same manner, to verify sensitivity of the assay.
In preparation for a recording session, intracellular solution was loaded into the intracellular compartments of the Sea/chip16 planar electrode. Cell suspension was pipetted into the extracellular compartments of the Sea/chip16 planar electrode. After establishment of the whole-cell configuration, membrane currents were recorded using dual-channel patch-clamp amplifiers in the PatchXpress® system. Before digitization, the current records were low-pass filtered at one-fifth of the sampling frequency.
Data acquisition and analysis were performed using the pCLAMP suite of programs (Axon Instruments, Union City, Calif.). The steady-state current before and after test article application was used to calculate the percentage current enhancement at each concentration. The results obtained from different cells were averaged and presented as mean±s.e.m (see Tables 1 and 2).

[1] = 30 μM test compound, 5 minutes exposure, ambient temperature

Row | Compound | Mean % Enhancement of KCNQ2/KCNQ3 [1] | further results
1 | O=S(=O)(Cc1ccccc1Nc1c(Cl)cccc1Cl)NCCOCCO [Example 1, 1-[2-(2,6-Dichlorophenylamino)phenyl]-N-[2-(2-hydroxyethoxy)ethyl]-methanesulfonamide] | 32.4 ± 18% | 
2 | O=S(=O)(NCCO)c1ccccc1Nc1c(Cl)cc(Cl)cc1Cl [Example 8, N-(2-Hydroxyethyl)-2-(2,4,6-trichlorophenylamino)-benzenesulfonamide] | 41.2 ± 9% | 
3 | O=S(=O)(NCCO)c1ccccc1Nc1c(Cl)cccc1Cl [Example 9, N-(2-Hydroxyethyl)-2-(2,6-dichlorophenylamino)-benzenesulfonamide] | 56.8 ± 9% | 
4 | O=S(=O)(NCCO)c1cccc(Nc2c(Cl)cc(Cl)cc2Cl)c1 [Example 16, N-(2-Hydroxyethyl)-3-(2,4,6-trichlorophenylamino)-benzenesulfonamide] | 87.4 ± 14% | 
5 | O=S(=O)(NCCO)c1cc(Nc2c(Cl)cc(Cl)cc2Cl)ccc1Cl [Example 18, 2-Chloro-N-(2-hydroxyethyl)-5-(2,4,6-trichlorophenylamino)benzensulfonamide] |  | Mean % Enhancement of KCNQ2/KCNQ3 (10 μM test compound, 5 minutes exposure, ambient temperature): 18.6 ± 4%
6 | CCOC(=O)Nc1ccc(NCc2ccc(F)cc2)nc1N [Flupirtine, flupirtine, reference compound] |  | Mean % Enhancement of KCNQ2/KCNQ3 (positive control, 10 μM, applied after vehicle to naïve cells): 127 ± 16%
